Like-named read-outs stand apart in the source and are kept apart here.
What was measured:
opiate addicts = conditions: cited from earlier work
[1] = test system: suspected opiate overdose; conditions: cited from earlier work
[2] = test system: patients with suspected opioid overdose; conditions: cited from earlier work
[3] = Safety of intranasal naloxone in humans (Study 1): nasal irritation, vital signs, ECG, clinical laboratory; format: in vivo, human
Protocol: These vital signs and temperature were also measured at screening, clinic intake, one day after each dosing session and at follow-up. […] AEs were recorded from the start of study-drug administration until clinic discharge. […] Clinical laboratory measurements were done prior to the first drug administration and on the day of clinic release.
Statistical Analysis of Adverse Events: AEs were coded using the most recent version of the Medical Dictionary for Regulatory Activities (MedDRA). Preferred terms and are grouped by system, organ, class (SOC) designation. AEs are presented as a listing including the start date, stop date, severity, relationship, outcome, and duration.

[4] = for Cmax/D, GLSM: dose adjustment to 0.4 mg
[5] = test system: patients with suspected narcotic overdose; conditions: cited from earlier work
[6] = 400 μL, cited from earlier work
clinical [7] = conditions: human, plasma; for AUC(0-t): AUC0-t; for AUC(0-inf): AUC0-∞
clinical [8] = conditions: human, plasma
[9] = test system: suspected opiate overdose; conditions: cited from earlier work; remark: listed apart in the source
overdose events = conditions: cited from earlier work
heroin overdose = conditions: cited from earlier work
[10] = 2 mg nasal solution dose; cited from earlier work
[11] = im, 0.4 mg, GLSM, 0.4 mg IM, no dose adjustment
[12] = other: intranasal, 2 mg, GLSM, 2 mg IN, no dose adjustment
[13] = other: intranasal, 2 mg, Mean, 2 mg IN
[14] = other: intranasal, 4 mg, GLSM, 4 mg IN, no dose adjustment
[15] = other: intranasal, 4 mg, Mean, 4 mg IN

For C=CCN1CC[C@]23c4c5ccc(O)c4O[C@H]2C(=O)CC[C@@]3(O)[C@H]1C5 [naloxone, 17-allyl-4,5a-epoxy-3,14-dihydroxymorphinan-6-one], the “effectiveness of nasal administration compared with intravenous route” value (opiate addicts) is given as “as effective as the intravenous route”, the “patients with more than 10 spontaneous respirations per minute within 8 minutes” value ([1]; 2 mg IM group) is given as 82% and the “patients with more than 10 spontaneous respirations per minute within 8 minutes” value ([1]; 2 mg IN group) is given as 63%. For the same compound, the “patients needing rescue naloxone” value ([1]; IM group) was 13%, the “patients needing rescue naloxone” value ([1]; IN group) was 26% and the “mean interval from EMS arrival to a respiratory rate of ≧10 breaths/min” value ([2]; naloxone 0.4 mg IV) was 9.3 ± 4.2 min. The “mean interval from EMS arrival to a respiratory rate of ≧10 breaths/min” value ([2]; naloxone 0.8 mg SQ) was 9.6 ± 4.58 min, the Pharyngeal pain ([3]; 2 mg IN dose) was “One subject experienced mild transient (over 3 min) pharyngeal pain” and the “Nasal irritation (erythema, edema, erosion, other sign in the nasal cavity)” value ([3]; IN naloxone at 2 and 4 mg to both nostrils) was “No erythema, edema, erosion, or other sign was observed”. For the same compound, the QTcF prolongation ([3]; Study 1) was “no evidence of QTcF prolongation”, the “Vital signs, ECG, and clinical laboratory parameters” value ([3]; after naloxone administration, Study 1) was “did not reveal any clinically noteworthy changes” and the “λz, Mean” value ([4]; 0.4 mg IM) was 0.593 h⁻¹. The “Cmax/D, GLSM” value ([4]; 0.4 mg IM) was 0.755 ng/mL, the “λz, Mean” value ([4]; 2 mg IN) was 0.588 h⁻¹ and the “Frel, Mean” value ([4]; 2 mg IN versus IM) was 0.571. The “Cmax/D, GLSM” value ([4]; 2 mg IN) was 0.510 ng/mL, the “Frel, Mean” value ([4]; 4 mg IN versus IM) was 0.475 and the “Cmax/D, GLSM” value ([4]; 4 mg IN) was 0.466 ng/mL. The Clinical response noted ([5]; IN group (2 mg), 33 of 50) was 66%, the “mean time between naloxone administration and clinical response” value ([5]; IN group) was 12.9 min and the “patients who received two doses of naloxone” value ([5]; IN group) was 34%. For the same compound, the Clinical response noted ([5]; IV group, 58 of 104) was 56%, the “mean time between naloxone administration and clinical response” value ([5]; IV group) was 8.1 min and the “patients who received two doses of naloxone” value ([5]; IV group) was 18%. For the same compound, the “mean Tmax” value ([6]; 8 mg IN) was 20.4 min, the “mean Tmax” value ([6]; 16 mg IN) was 23.4 min and the “AUC % Extrapolate, mean (% CV)” value (0.4 mg IM) was 2.32 (54.1) %. The “Lambda z (harmonic mean)” value (0.4 mg IM) was 0.5534 h⁻¹, the “Lambda z (harmonic mean)” value (0.4 mg IM, Female) was 0.6140 h⁻¹ and the “Lambda z (harmonic mean)” value (0.4 mg IM, Male) was 0.5152 h⁻¹. The “Lambda z (harmonic mean)” value (One 20 mg/mL IN, Female) was 0.3978 h⁻¹, the “Lambda z (harmonic mean)” value (One 20 mg/mL IN, Male) was 0.3492 h⁻¹ and the “Lambda z (harmonic mean)” value (One 40 mg/mL IN, Female) was 0.2946 h⁻¹. The “Lambda z (harmonic mean)” value (One 40 mg/mL IN, Male) was 0.3386 h⁻¹, the “AUC % Extrapolate, mean (% CV)” value (One Spray - 2 mg 20 mg/mL IN) was 1.09 (41.9) % and the “Lambda z (harmonic mean)” value (One Spray - 2 mg 20 mg/mL IN) was 0.3685 h⁻¹. For the same compound, the “AUC % Extrapolate, mean (% CV)” value (One Spray - 4 mg 40 mg/mL IN) was 1.06 (52.5) %, the “Lambda z (harmonic mean)” value (One Spray - 4 mg 40 mg/mL IN) was 0.3182 h⁻¹ and the “Lambda z (harmonic mean)” value (Two 20 mg/mL IN, Female) was 0.2796 h⁻¹. The “Lambda z (harmonic mean)” value (Two 20 mg/mL IN, Male) was 0.3122 h⁻¹, the “Lambda z (harmonic mean)” value (Two 40 mg/mL IN, Female) was 0.2994 h⁻¹ and the “Lambda z (harmonic mean)” value (Two 40 mg/mL IN, Male) was 0.3407 h⁻¹. For the same compound, the “AUC % Extrapolate, mean (% CV)” value (Two Sprays - 4 mg 20 mg/mL IN) was 1.01 (53.9) %, the “Lambda z (harmonic mean)” value (Two Sprays - 4 mg 20 mg/mL IN) was 0.2973 h⁻¹ and the “AUC % Extrapolate, mean (% CV)” value (Two Sprays - 8 mg 40 mg/mL IN) was 1.04 (78.1) %. The “Lambda z (harmonic mean)” value (Two Sprays - 8 mg 40 mg/mL IN) was 0.3217 h⁻¹, the AUC(0-t) (clinical [7]; [11]) was 1.35 ng·h/mL and the AUC(0-t) (clinical [7]; im, 0.4 mg, Mean, 0.4 mg IM) was 1.38 ng·h/mL. For the same compound, the AUC(0-inf) (clinical [7]; [11]) was 1.39 ng·h/mL, the AUC(0-inf) (clinical [7]; im, 0.4 mg, Mean, 0.4 mg IM) was 1.42 ng·h/mL and the Tmax (clinical [7]; im, 0.4 mg, GLSM, 0.4 mg IM) was 18.5 min. For the same compound, the Tmax (clinical [7]; im, 0.4 mg, Mean, 0.4 mg IM) was 20.3 min, the AUC(0-t) (clinical [7]; [12]) was 3.28 ng·h/mL and the AUC(0-t) (clinical [7]; [13]) was 3.41 ng·h/mL. For the same compound, the AUC(0-inf) (clinical [7]; [12]) was 3.32 ng·h/mL, the AUC(0-inf) (clinical [7]; [13]) was 3.44 ng·h/mL and the Tmax (clinical [7]; other: intranasal, 2 mg, GLSM, 2 mg IN) was 20 min. For the same compound, the Tmax (clinical [7]; [13]) was 20 min, the AUC(0-t) (clinical [7]; [14]) was 5.41 ng·h/mL and the AUC(0-t) (clinical [7]; [15]) was 5.63 ng·h/mL. It also gave an AUC(0-inf) (clinical [7]; [14]) of 5.47 ng·h/mL, an AUC(0-inf) (clinical [7]; [15]) of 5.68 ng·h/mL and a Tmax (clinical [7]; other: intranasal, 4 mg, GLSM, 4 mg IN) of 17.5 min. It also gave a Tmax (clinical [7]; [15]) of 18.4 min, a Cmax (clinical [8]; female, im, 0.4 mg, 0.4 mg IM) of 1.06 ng/mL and a Tmax (clinical [8]; female, im, 0.4 mg, Tmax (median), 0.4 mg IM) of 19.8 min. The Tmax (clinical [8]; female, other: intranasal (IN), 4 mg, Tmax (median), One 40 mg/mL IN, Female) was 30 min, the Tmax (clinical [8]; female, other: intranasal (IN), 8 mg, Tmax (median), Two 40 mg/mL IN, Female) was 17.4 min and the Cmax (clinical [8]; female, other: intranasal, 2 mg, One 20 mg/mL IN, Female) was 2.79 ng/mL. The Tmax (clinical [8]; female, other: intranasal, 2 mg, Tmax (median), One 20 mg/mL IN, Female) was 19.8 min, the Cmax (clinical [8]; female, other: intranasal, 4 mg, One 40 mg/mL IN, Female) was 5.12 ng/mL and the Cmax (clinical [8]; female, other: intranasal, 4 mg, Two 20 mg/mL IN, Female) was 6.62 ng/mL. For the same compound, the Tmax (clinical [8]; female, other: intranasal, 4 mg, Tmax (median), Two 20 mg/mL IN, Female) was 19.8 min, the Cmax (clinical [8]; female, other: intranasal, 8 mg, Two 40 mg/mL IN, Female) was 9.52 ng/mL and the Cmax (clinical [8]; im, 0.4 mg, mean (% CV), 0.4 mg IM) was 0.906 ng/mL. It also gave a Tmax (clinical [8]; im, 0.4 mg, Tmax (median, range), 0.4 mg IM) of 25.2 min, a Cmax (clinical [8]; other: intranasal, 2 mg, mean (% CV), One Spray - 2 mg 20 mg/mL IN) of 3.11 ng/mL and a Tmax (clinical [8]; other: intranasal, 2 mg, Tmax (median, range), One Spray - 2 mg 20 mg/mL IN) of 19.8 min. For the same compound, the Cmax (clinical [8]; other: intranasal, 4 mg, mean (% CV), One Spray - 4 mg 40 mg/mL IN) was 5.34 ng/mL, the Cmax (clinical [8]; other: intranasal, 4 mg, mean (% CV), Two Sprays - 4 mg 20 mg/mL IN) was 6.63 ng/mL and the Tmax (clinical [8]; other: intranasal, 4 mg, Tmax (median, range), One Spray - 4 mg 40 mg/mL IN) was 30 min. It also gave a Tmax (clinical [8]; other: intranasal, 4 mg, Tmax (median, range), Two Sprays - 4 mg 20 mg/mL IN) of 19.8 min, a Cmax (clinical [8]; other: intranasal, 8 mg, mean (% CV), Two Sprays - 8 mg 40 mg/mL IN) of 10.3 ng/mL and a Tmax (clinical [8]; other: intranasal, 8 mg, Tmax (median, range), Two Sprays - 8 mg 40 mg/mL IN) of 19.8 min. It also gave a Cmax (clinical [8]; male, im, 0.4 mg, 0.4 mg IM) of 0.792 ng/mL, a Tmax (clinical [8]; male, im, 0.4 mg, Tmax (median), 0.4 mg IM) of 30 min and a Tmax (clinical [8]; male, other: intranasal (IN), 4 mg, Tmax (median), One 40 mg/mL IN, Male) of 30 min. For the same compound, the Tmax (clinical [8]; male, other: intranasal (IN), 8 mg, Tmax (median), Two 40 mg/mL IN, Male) was 25.2 min, the Cmax (clinical [8]; male, other: intranasal, 2 mg, One 20 mg/mL IN, Male) was 3.35 ng/mL and the Tmax (clinical [8]; male, other: intranasal, 2 mg, Tmax (median), One 20 mg/mL IN, Male) was 19.8 min. For the same compound, the Cmax (clinical [8]; male, other: intranasal, 4 mg, One 40 mg/mL IN, Male) was 5.51 ng/mL, the Cmax (clinical [8]; male, other: intranasal, 4 mg, Two 20 mg/mL IN, Male) was 6.64 ng/mL and the Tmax (clinical [8]; male, other: intranasal, 4 mg, Tmax (median), Two 20 mg/mL IN, Male) was 15 min. For the same compound, the Cmax (clinical [8]; male, other: intranasal, 8 mg, Two 40 mg/mL IN, Male) was 10.9 ng/mL, the “patients responding to IN naloxone alone” value ([9]; 2 mg IN, 43 of 52 patients who responded to naloxone by IN or IV) was 83% and the “median time from administration of the IN naloxone to patient awakening” value ([9]; 2 mg IN) was 3.0 min. For the same compound, the “median time from arrival at patient side to awakening” value ([9]; 2 mg IN) was 8.0 min, the “patients requiring further doses of IV naloxone” value ([9]; among responders to 2 mg IN alone) was 16% and the overdose events reversed (overdose events; 399 overdose events where naloxone was used, participant-reported) was 89%. The “participants reporting serious adverse effects” value (overdose events; take-home naloxone) was under 1%, the “rate of response within 10 minutes” value (heroin overdose; 2 mg IM naloxone, 69/89) was 77.5% and the “rate of response within 10 minutes” value (heroin overdose; 2 mg IN naloxone, 60/83) was 72.3%. For the same compound, the “patients administered supplementary naloxone” value (heroin overdose; IM naloxone) was 4.5%, the mean response time (heroin overdose; IN naloxone) was 8.0 min and the mean response time (heroin overdose; IV naloxone) was 7.9 min. For the same compound, the “Cmax (predicted by Wermeling)” value [10] was 3 to 5 ng/mL and the “tmax (predicted by Wermeling)” value [10] was “approximately 20 minutes”.

From patent US20160008277A1, “CO-PACKAGED DRUG PRODUCTS” (Lightlake Therapeutics Inc., priority 2014, published 2016)
